Source: article PMC7915449, “Differential Regulation of Bilastine Affinity for Human Histamine H1 Receptors by Lys 179 and Lys 191 via Its Binding Enthalpy and Entropy” (International Journal of Molecular Sciences, 2021)

How the values were obtained:
[1] = biological target: T1, K179A (Lys179 mutant of H1 receptor to alanine) (Homo sapiens, UniProt P35367, K179A); assay: [3H]mepyramine displacement binding, membranes of CHO cells expressing K179A mutant
T1 construct: 3xHA (three copies of hemagglutinin YPYDVPDYA) (N); expressed in transfected cells; membrane preparations
Protocol: (§1) To evaluate changes in the binding affinity of bilastine for H1 receptors by mutations of Lys179^ECL2 and/or Lys191^5.39, the IC50 for bilastine was first obtained from the displacement curves for the binding of 3 nM [^3H] mepyramine to membrane preparations of CHO cells expressing wild-type human H1 receptors (WT), Lys179^ECL2 or Lys191^5.39 mutants of WT to alanine (K179A and K191A), and both Lys179^ECL2 and Lys191^5.39 mutants of WT to alanine (K179A + K191A) at 4 °C–37 °C (Figure 3). The Ki values for bilastine were then calculated from the IC50, as described in the materials and methods section.
(§2) CHO cells stably expressing WT, K179A, K191A, and K179A + K191A were cultured, and membrane preparations were obtained as described previously. […] The reaction mixture was filtered through glass fiber filters, and the radioactivity trapped on the filters was determined by scintillation counting. […] The protein content in the membrane preparations was determined using a BCA protein assay kit (Pierce, Rockford, IL, USA).
(§3) The IC50 for bilastine was determined by fitting the displacement curves to the one-site model (KaleidaGraph; Synergy Software, Reading, PA, USA):B = 100 − P × C/(C + IC50) where B is the amount of [^3H] mepyramine bound, C is the free concentration of bilastine, and P is the percentage of the binding sites of bilastine. […]

[2] = biological target: T2, K179A + K191A (both Lys179 and Lys191 mutant of H1 receptor to alanine) (Homo sapiens, UniProt P35367, K179A/K191A); assay: [3H]mepyramine displacement binding, membranes of CHO cells expressing K179A + K191A mutant
T2 construct: 3xHA (three copies of hemagglutinin YPYDVPDYA) (N); expressed in transfected cells; membrane preparations
Protocol: as §1, §2, §3

[3] = biological target: T3, K191A (Lys191 mutant of H1 receptor to alanine) (Homo sapiens, UniProt P35367, K191A); assay: [3H]mepyramine displacement binding, membranes of CHO cells expressing K191A mutant
T3 construct: 3xHA (three copies of hemagglutinin YPYDVPDYA) (N); expressed in transfected cells; membrane preparations
Protocol: as §1
CHO cells stably expressing WT, K179A, K191A, and K179A + K191A were cultured, and membrane preparations were obtained as described previously. The receptor binding assay with [^3H] mepyramine, a radioligand for H1 receptors, was performed in accordance with the methods described previously. Briefly, aliquots (0.1 mL) of membrane preparations (approximately 50 µg of membrane proteins) were incubated with 3 nM [^3H] mepyramine in the presence or absence of various concentrations of bilastine for 3 h at 37 °C, 24 h at 25 °C and 14 °C, and 7 days at 4 °C in normal HEPES buffer (NaCl, 120 mM; KCl, 5.4 mM; MgCl2, 1.6 mM; CaCl2, 1.8 mM, D-glucose, 11 mM; and HEPES, 25 mM; pH 7.4 at 37 °C; final volume 1 mL). The reaction mixture was filtered through glass fiber filters, and the radioactivity trapped on the filters was determined by scintillation counting. All determinations were made in quadruplicate. The protein content in the membrane preparations was determined using a BCA protein assay kit (Pierce, Rockford, IL, USA).
as §3

[4] = biological target: T4, wild-type human H1 receptors (WT) (Homo sapiens, UniProt P35367); assay: biochemical; assay type: binding
T4 construct: 3xHA (three copies of hemagglutinin YPYDVPDYA) (N); membrane preparations

[5] = tested on: wild-type human H1 receptors (WT); assay: biochemical; assay type: binding; settings: mutants K179A, K191A, K179A + K191A versus WT, 25 °C; significant
[6] = K191A versus WT, van 't Hoff analysis 4-37 °C, significant

T3 sequence (P35367 whole entry K191A): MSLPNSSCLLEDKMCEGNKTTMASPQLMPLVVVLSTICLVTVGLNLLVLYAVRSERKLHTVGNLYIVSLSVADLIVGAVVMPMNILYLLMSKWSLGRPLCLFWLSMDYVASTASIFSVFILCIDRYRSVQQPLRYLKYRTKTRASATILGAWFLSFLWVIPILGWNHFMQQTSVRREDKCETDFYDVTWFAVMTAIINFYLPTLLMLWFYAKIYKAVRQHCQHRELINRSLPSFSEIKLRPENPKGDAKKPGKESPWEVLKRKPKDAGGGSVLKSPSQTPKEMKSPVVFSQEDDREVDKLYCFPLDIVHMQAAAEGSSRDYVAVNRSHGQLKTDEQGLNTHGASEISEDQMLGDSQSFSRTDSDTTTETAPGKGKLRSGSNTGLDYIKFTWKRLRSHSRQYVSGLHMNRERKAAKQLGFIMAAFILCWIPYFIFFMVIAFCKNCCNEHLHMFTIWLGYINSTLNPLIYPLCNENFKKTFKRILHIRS
T1 sequence (P35367 whole entry K179A): as the sequence (P35367 whole entry K191A) above, with K179A, A191K counted along it
T2 sequence (P35367 whole entry K179A/K191A): as the sequence (P35367 whole entry K191A) above, with K179A counted along it
T4 sequence (P35367 whole entry): as the sequence (P35367 whole entry K191A) above, with A191K counted along it

With `CCOCCn1c(C2CCN(CCc3ccc(C(C)(C)C(=O)O)cc3)CC2)nc2ccccc21` [bilastine, Bilastine] the Ki [1] was 5.2 ± 1.18 nM, the “reduction in the enthalpy-dependent binding forces (∆H°) by mutation” value ([1]; K179A versus WT, van 't Hoff analysis 4-37 °C, not significant) was 0.454 kcal/mol and the Ki [2] was 7.96 ± 0.76 nM. For the same compound, the “reduction in the entropy-dependent binding forces (∆T∆S°) by mutation” value ([2]; K179A + K191A versus WT, van 't Hoff analysis 4-37 °C, not significant) was 0.526 kcal/mol, the Ki [3] was 2.57 ± 0.16 nM and the “increase in enthalpy-dependent binding forces (∆H°) by mutation” value [3, 6] was 1.94 kcal/mol. The “reduction in the entropy-dependent binding forces (∆T∆S°) by mutation” value [3, 6] was 1.96 kcal/mol, the Ki [4] was 1.92 ± 0.08 nM and the “reduction of affinity for H1 receptors following mutation of Lys179 and/or Lys191” value [5] was 1.3 to 4.1 times.
